Laboratory results published in ChEMBL document CHEMBL2029289, “Structure-activity relationship study of a CXC chemokine receptor type 4 antagonist, FC131, using a series of alkene dipeptide isosteres” (J Med Chem, 2012).

Biological target: C-X-C chemokine receptor type 4 (Homo sapiens, UniProt P61073)
Assay: Displacement of [125I]SDF-1alpha from CXCR4 expressed in HEK293 cell membrane after 1 hr
Type: cell membranes

Sequence of C-X-C chemokine receptor type 4 (P61073 whole entry): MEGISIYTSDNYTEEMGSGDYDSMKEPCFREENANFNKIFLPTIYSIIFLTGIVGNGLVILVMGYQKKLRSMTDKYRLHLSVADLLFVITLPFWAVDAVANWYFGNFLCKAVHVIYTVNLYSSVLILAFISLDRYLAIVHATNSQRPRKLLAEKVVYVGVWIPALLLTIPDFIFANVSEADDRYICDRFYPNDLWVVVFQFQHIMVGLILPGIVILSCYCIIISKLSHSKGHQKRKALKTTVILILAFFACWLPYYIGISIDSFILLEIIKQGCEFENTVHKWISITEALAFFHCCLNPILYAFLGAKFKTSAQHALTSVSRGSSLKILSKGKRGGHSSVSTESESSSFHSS

| IC50 [µM] | Structure (SMILES) |
| --- | --- |
| 0.063 | CN1C(=O)[C@@H](Cc2ccc(O)cc2)NC(=O)CNC(=O)[C@H](Cc2ccc3ccccc3c2)NC(=O)[C@H](CCCN=C(N)N)NC(=O)[C@H]1CCCN=C(N)N |
| 0.33 | NC(N)=NCCC[C@H]1/C=C/[C@@H](Cc2ccc(O)cc2)NC(=O)CNC(=O)[C@H](Cc2ccc3ccccc3c2)NC(=O)[C@H](CCCN=C(N)N)NC1=O |
| 0.5 | C/C1=C\[C@H](CCCNC(=N)N)C(=O)N[C@@H](CCCNC(=N)N)C(=O)N[C@@H](Cc2ccc3ccccc3c2)C(=O)NCC(=O)N[C@@H]1Cc1ccc(O)cc1 |
| 2.5 | C/C1=C(/C)[C@@H](Cc2ccc(O)cc2)NC(=O)CNC(=O)[C@H](Cc2ccc3ccccc3c2)NC(=O)[C@H](CCCNC(=N)N)NC(=O)[C@H]1CCCNC(=N)N |
| 0.1 | C/C1=C(/C)[C@@H](CCCNC(=N)N)C(=O)N[C@@H](CCCNC(=N)N)C(=O)N[C@@H](Cc2ccc3ccccc3c2)C(=O)NCC(=O)N[C@@H]1Cc1ccc(O)cc1 |
| > 10 | NC(N)=NCCC[C@H]1CC[C@H](Cc2ccc(O)cc2)NC(=O)CNC(=O)[C@H](Cc2ccc3ccccc3c2)NC(=O)[C@H](CCCN=C(N)N)NC1=O |
| 0.29 | CN1C(=O)[C@@H](Cc2ccc(O)cc2)NC(=O)CNC(=O)[C@H](Cc2ccc3ccccc3c2)NC(=O)[C@H](CCCNC(=N)N)NC(=O)[C@@H]1CCCNC(=N)N |
